# Source: ChEMBL document CHEMBL3763108, “Application of PEG-400 as a green biodegradable polymeric medium for the catalyst-free synthesis of spiro-dihydropyridines and their use as acetyl and butyrylcholinesterase inhibitors” (Bioorg Med Chem, 2016)
# pIC50: −log10 of the molar value.
# Legend:
# Acetylcholinesterase = Acetylcholinesterase (Homo sapiens, UniProt P22303); assay: Inhibition of AChE (unknown origin) using acetylthiocholine as substrate assessed as reduction of DTNB to TNB preincubated for 20 mins followed by addition of substrate by Ellman's kinetic method
# Cholinesterase = Cholinesterase (Homo sapiens, UniProt P06276); assay: Inhibition of BChE (unknown origin) using acetylthiocholine as substrate assessed as reduction of DTNB to TNB preincubated for 20 mins followed by addition of substrate by Ellman's kinetic method
# [1] = biological target: T1, Cholinesterases; ACHE & BCHE (Homo sapiens) (UniProt P06276+P22303); assay: Selectivity ratio of IC50 for BChE (unknown origin) to IC50 for AChE (unknown origin) by Ellman's kinetic method
# [2] = biological target: T1, Cholinesterases; ACHE & BCHE (Homo sapiens); assay: Selectivity ratio of IC50 for AChE (unknown origin) to IC50 for BChE (unknown origin) by Ellman's kinetic method
# Sequence of Cholinesterase (P06276 whole entry): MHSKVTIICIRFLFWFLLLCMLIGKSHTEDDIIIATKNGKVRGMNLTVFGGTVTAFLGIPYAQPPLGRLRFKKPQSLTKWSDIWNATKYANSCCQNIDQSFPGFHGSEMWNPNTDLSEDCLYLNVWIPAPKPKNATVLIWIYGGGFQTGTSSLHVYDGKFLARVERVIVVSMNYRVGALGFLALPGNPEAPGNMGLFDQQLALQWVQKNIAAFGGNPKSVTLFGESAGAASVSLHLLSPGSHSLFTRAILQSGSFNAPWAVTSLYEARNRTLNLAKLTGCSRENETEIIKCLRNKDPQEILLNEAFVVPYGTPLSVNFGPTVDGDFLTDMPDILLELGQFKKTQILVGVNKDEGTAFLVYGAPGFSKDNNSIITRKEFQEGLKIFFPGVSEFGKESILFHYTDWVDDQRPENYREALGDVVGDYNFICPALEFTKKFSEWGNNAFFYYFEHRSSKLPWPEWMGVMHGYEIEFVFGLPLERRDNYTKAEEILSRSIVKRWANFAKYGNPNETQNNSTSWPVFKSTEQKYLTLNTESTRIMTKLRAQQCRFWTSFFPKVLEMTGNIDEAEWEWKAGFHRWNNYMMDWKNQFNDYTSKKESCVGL
# T1 sequence (P06276 whole entry, looked up): as the sequence (P06276 whole entry) above
# T1 sequence (P22303 whole entry, looked up): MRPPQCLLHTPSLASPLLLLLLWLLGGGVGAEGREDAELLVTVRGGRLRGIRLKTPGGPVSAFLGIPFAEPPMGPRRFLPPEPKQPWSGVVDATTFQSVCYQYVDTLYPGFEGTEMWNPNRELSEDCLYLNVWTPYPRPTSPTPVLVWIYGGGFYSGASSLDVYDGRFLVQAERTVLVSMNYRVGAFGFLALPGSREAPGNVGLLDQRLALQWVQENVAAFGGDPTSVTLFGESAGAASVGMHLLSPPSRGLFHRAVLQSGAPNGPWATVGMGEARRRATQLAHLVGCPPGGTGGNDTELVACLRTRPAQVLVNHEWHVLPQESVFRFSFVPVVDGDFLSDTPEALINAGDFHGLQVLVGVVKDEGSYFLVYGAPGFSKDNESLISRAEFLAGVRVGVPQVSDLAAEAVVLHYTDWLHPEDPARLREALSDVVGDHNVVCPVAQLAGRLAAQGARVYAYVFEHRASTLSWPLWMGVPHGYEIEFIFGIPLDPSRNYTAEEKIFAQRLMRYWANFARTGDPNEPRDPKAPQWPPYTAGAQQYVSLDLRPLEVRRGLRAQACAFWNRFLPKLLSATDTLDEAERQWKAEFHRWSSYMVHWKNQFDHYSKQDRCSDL
# Sequence of Acetylcholinesterase (P22303 whole entry): as the sequence (P22303 whole entry, looked up) above
Compound,pIC50 (Acetylcholinesterase),pIC50 (Cholinesterase),Ratio IC50 [1],Ratio IC50 [2]
N#CC1=C(N)N2CCCNC2=C([N+](=O)[O-])C12C(=O)c1ccc(Br)c3c(Br)ccc2c13 (stereo not drawn),5.17,4.61,3.68,0.272
N#CC1=C(N)N(Cc2ccccc2)C(NCc2ccccc2)=C([N+](=O)[O-])C12C(=O)Nc1ccccc12 (stereo not drawn),5.40,4.82,3.86,0.259
CC1(C)CNC2=C([N+](=O)[O-])C3(C(=O)c4cccc5cccc3c45)C(C#N)=C(N)N2C1 (stereo not drawn),5.11,4.59,3.3,0.303
Cc1ccc2c(c1)C1(C(=O)N2)C(C#N)=C(N)N2CC(C)(C)CNC2=C1[N+](=O)[O-] (stereo not drawn),5.86,4.83,10.6,0.095
CC1(C)CNC2=C([N+](=O)[O-])C3(C(=O)Nc4ccc(F)cc43)C(C#N)=C(N)N2C1 (stereo not drawn),5.97,4.80,14.9,0.067
Cc1ccc2c(c1)C1(C(=O)N2)C(C#N)=C(N)N(Cc2ccccc2)C(NCc2ccccc2)=C1[N+](=O)[O-] (stereo not drawn),5.43,4.87,3.64,0.275
N#CC1=C(N)N2CCNC2=C([N+](=O)[O-])C12C(=O)Nc1ccc(F)cc12 (stereo not drawn),5.48,4.77,5.12,0.195
Cc1ccc2c(c1)C1(C(=O)N2)C(C#N)=C(N)N2CCNC2=C1[N+](=O)[O-] (stereo not drawn),5.41,4.79,4.21,0.238
CC1(C)CNC2=C([N+](=O)[O-])C3(C(=O)Nc4ccc([N+](=O)[O-])cc43)C(C#N)=C(N)N2C1 (stereo not drawn),5.81,4.93,7.71,0.13
N#CC1=C(N)N2CCCNC2=C([N+](=O)[O-])C12C(=O)Nc1ccc(F)cc12 (stereo not drawn),6.38,4.83,35,0.029
N#CC1=C(N)N2CCNC2=C([N+](=O)[O-])C12C(=O)c1cccc3cccc2c13 (stereo not drawn),5.15,4.62,3.36,0.298
N#CC1=C(N)N2CCNC2=C([N+](=O)[O-])C12C(=O)c1ccc(Br)c3c(Br)ccc2c13 (stereo not drawn),5.20,4.58,4.09,0.245
N#CC1=C(N)N(Cc2ccccc2)C(NCc2ccccc2)=C([N+](=O)[O-])C12C(=O)Nc1ccc(F)cc12 (stereo not drawn),5.45,4.82,4.26,0.235
N#CC1=C(N)N2CCCNC2=C([N+](=O)[O-])C12C(=O)c1cccc3cccc2c13 (stereo not drawn),5.18,4.58,3.96,0.252
N#CC1=C(N)N2CCCNC2=C([N+](=O)[O-])C12C(=O)Nc1ccc([N+](=O)[O-])cc12 (stereo not drawn),5.94,4.91,10.8,0.092
CC1(C)CNC2=C([N+](=O)[O-])C3(C(=O)Nc4ccccc43)C(C#N)=C(N)N2C1 (stereo not drawn),5.90,4.98,8.34,0.12
N#CC1=C(N)N(Cc2ccccc2)C(NCc2ccccc2)=C([N+](=O)[O-])C12C(=O)Nc1ccc([N+](=O)[O-])cc12 (stereo not drawn),5.47,4.83,4.44,0.225
N#CC1=C(N)N2CCNC2=C([N+](=O)[O-])C12C(=O)Nc1ccccc12 (stereo not drawn),5.31,4.87,2.77,0.36
N#CC1=C(N)N(Cc2ccccc2)C(NCc2ccccc2)=C([N+](=O)[O-])C12C(=O)c1ccc(Br)c3c(Br)ccc2c13 (stereo not drawn),5.20,4.58,4.26,0.235
N#CC1=C(N)N(Cc2ccccc2)C(NCc2ccccc2)=C([N+](=O)[O-])C12C(=O)c1cccc3cccc2c13 (stereo not drawn),5.22,4.62,4,0.25
COc1ccc2c3c1O[C@H]1CC(O)CC[C@@]31CCN(C)C2 (stereo partly drawn),,,5.12,0.196
CC1(C)CNC2=C([N+](=O)[O-])C3(C(=O)c4ccc(Br)c5c(Br)ccc3c45)C(C#N)=C(N)N2C1 (stereo not drawn),5.22,4.62,3.98,0.251
Cc1ccc2c(c1)C1(C(=O)N2)C(C#N)=C(N)N2CCCNC2=C1[N+](=O)[O-] (stereo not drawn),6.03,4.91,13.1,0.076
N#CC1=C(N)N2CCCNC2=C([N+](=O)[O-])C12C(=O)Nc1ccccc12 (stereo not drawn),5.99,5.05,8.76,0.114
N#CC1=C(N)N2CCNC2=C([N+](=O)[O-])C12C(=O)Nc1ccc([N+](=O)[O-])cc12 (stereo not drawn),5.49,4.85,4.34,0.23
